One data set deals with HMEC. The data set is described as follows: Inhibition of VEGF-mediated proliferation of HMVEC. The format is functional, cell-based. The settings on record: Homo sapiens.
For data set [1], the target named is Vascular endothelial growth factor receptor 2 (Mus musculus, UniProt P35918). The data set is described as follows: Inhibition of VEGFR2.
For data set [2], the target named is Vascular endothelial growth factor receptor 1 (Homo sapiens, UniProt P17948). The data set is described as follows: Inhibition of VEGFR1.
Data set [3] concerns the target Fibroblast growth factor receptor 1 (Homo sapiens, UniProt P11362). The data set is described as follows: Inhibition of FGFR1.
Data set [4] has as its target Platelet-derived growth factor receptor beta (Mus musculus, UniProt P05622). The experiment in a line: Inhibition of PDGFRbeta.
Data set [5] has as its system KM12. The experiment in a line: Antitumor activity against human KM12L4a cell line xenografted in nude mice at 30 mg/kg, after 14 days. In kind it is functional. The settings on record: Mus musculus, KM12, 336 h, read-out: TGI. A general note: Xenograft models place foreign cells or tissue in a host animal.
Data set [6] can be described thus: Oral bioavailability in mouse. The format is ADME, organism-based. The settings on record: in vivo.
For another data set, the species on record is Mus musculus. The data set is described as follows: Area under curve in mouse. The format is ADME, organism-based. The settings on record: in vivo.
A short description of data set [7]: Clearance in mouse. The format is ADME, organism-based. The following applies: in vivo.
Data set [8] is described as follows: Volume of distribution in mouse. In kind it is ADME, organism-based. The following applies: in vivo, read-out: Vdss.
Data set [9] deals with KM12. The data set is described as follows: Antitumor activity against human KM12L4a cell line xenografted in nude mice at 100 mg/kg, after 14 days. The format is functional. The settings on record: Mus musculus, KM12, 336 h, read-out: TGI.
Data set [10] is described as follows: Half life in mouse. In kind it is ADME, organism-based. The following applies: in vivo.

The results in this text go back to ChEMBL document CHEMBL1138908, “Design and structure-activity relationship of 3-benzimidazol-2-yl-1H-indazoles as inhibitors of receptor tyrosine kinases” (Bioorg Med Chem Lett, 2006).

Each structure is given as a SMILES string.

Chain of Platelet-derived growth factor receptor beta (P05622 whole entry): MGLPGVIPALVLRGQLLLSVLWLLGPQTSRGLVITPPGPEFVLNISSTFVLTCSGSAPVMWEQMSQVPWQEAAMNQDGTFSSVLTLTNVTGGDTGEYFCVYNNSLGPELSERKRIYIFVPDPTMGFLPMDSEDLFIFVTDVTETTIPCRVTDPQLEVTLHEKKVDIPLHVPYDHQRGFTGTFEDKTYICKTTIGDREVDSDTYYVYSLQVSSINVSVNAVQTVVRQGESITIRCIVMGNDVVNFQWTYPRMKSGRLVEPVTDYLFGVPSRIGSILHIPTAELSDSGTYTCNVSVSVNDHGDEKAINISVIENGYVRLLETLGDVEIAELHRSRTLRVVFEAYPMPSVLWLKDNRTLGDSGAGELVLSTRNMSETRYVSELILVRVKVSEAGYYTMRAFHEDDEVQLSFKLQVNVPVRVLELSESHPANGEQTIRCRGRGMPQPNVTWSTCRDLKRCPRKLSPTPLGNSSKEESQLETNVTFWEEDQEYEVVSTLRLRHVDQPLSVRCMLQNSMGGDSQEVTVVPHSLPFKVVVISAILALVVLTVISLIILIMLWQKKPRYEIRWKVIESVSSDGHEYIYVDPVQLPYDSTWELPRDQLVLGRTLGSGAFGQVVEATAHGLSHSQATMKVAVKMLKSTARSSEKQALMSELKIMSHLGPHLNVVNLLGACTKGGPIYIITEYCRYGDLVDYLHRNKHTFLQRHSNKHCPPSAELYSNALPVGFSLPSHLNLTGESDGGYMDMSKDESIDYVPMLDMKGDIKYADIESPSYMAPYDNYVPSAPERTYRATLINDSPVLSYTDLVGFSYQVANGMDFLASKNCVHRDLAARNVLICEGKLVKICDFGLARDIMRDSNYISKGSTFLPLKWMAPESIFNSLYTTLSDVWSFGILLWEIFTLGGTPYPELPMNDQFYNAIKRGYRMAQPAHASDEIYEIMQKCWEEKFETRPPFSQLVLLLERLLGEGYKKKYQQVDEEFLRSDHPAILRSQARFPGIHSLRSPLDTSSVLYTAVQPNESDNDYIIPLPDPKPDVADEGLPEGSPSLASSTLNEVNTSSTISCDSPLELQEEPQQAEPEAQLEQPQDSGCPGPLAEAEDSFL
Chain of Vascular endothelial growth factor receptor 2 (P35918 whole entry): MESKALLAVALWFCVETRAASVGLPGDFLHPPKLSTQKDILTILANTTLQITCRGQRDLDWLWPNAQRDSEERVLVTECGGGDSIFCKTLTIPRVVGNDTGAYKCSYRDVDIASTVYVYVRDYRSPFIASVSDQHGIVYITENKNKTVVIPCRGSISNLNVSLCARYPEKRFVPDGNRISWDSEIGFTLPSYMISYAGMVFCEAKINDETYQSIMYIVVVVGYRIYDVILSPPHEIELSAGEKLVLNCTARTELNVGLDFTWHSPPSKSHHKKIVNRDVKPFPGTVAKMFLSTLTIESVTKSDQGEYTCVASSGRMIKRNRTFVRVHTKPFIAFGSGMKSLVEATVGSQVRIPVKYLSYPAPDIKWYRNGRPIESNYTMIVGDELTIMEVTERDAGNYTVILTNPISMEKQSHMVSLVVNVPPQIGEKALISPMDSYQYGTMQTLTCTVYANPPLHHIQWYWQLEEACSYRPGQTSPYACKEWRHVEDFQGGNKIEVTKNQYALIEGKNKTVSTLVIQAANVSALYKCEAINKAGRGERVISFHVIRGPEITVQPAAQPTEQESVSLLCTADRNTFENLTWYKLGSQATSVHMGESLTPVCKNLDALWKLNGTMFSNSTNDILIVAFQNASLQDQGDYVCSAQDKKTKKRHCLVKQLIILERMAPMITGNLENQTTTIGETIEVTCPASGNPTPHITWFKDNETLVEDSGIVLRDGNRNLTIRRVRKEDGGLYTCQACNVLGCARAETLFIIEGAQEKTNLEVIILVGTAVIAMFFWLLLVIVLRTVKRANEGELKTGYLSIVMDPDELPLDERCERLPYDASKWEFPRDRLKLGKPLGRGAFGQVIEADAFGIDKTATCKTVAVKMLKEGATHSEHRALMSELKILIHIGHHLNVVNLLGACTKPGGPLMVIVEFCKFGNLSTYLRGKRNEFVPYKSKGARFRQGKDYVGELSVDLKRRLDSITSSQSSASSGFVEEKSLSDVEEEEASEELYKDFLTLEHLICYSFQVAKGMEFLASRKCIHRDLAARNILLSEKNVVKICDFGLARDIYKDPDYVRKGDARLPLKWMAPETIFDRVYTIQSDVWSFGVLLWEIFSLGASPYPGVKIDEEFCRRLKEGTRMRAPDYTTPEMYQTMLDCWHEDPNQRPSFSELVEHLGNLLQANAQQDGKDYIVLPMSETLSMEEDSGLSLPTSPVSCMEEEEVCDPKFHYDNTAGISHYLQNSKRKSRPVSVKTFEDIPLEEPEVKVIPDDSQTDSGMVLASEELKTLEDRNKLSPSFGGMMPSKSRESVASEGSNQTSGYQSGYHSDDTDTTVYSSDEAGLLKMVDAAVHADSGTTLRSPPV
Chain of Fibroblast growth factor receptor 1 (P11362 whole entry): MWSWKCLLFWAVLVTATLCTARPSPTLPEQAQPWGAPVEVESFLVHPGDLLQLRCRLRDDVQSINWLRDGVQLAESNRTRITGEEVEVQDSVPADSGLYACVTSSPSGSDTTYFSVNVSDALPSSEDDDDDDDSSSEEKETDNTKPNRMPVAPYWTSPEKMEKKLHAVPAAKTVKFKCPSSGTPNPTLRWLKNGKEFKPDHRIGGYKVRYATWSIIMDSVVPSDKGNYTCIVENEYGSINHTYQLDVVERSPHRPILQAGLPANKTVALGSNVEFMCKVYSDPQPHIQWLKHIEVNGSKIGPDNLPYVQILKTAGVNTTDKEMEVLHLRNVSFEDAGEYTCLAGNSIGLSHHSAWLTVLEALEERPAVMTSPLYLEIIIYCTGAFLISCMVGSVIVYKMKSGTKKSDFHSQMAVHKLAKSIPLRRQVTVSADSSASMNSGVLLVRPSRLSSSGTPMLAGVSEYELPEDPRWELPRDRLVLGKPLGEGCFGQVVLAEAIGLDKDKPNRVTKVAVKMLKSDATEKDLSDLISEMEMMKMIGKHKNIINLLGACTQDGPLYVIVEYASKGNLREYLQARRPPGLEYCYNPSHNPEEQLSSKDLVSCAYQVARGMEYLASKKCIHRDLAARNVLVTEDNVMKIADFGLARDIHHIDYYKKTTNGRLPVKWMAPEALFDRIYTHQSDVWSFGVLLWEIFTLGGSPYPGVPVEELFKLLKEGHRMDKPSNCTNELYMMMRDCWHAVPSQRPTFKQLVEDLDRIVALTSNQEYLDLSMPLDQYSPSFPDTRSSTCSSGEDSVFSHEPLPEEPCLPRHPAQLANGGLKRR
Chain of Vascular endothelial growth factor receptor 1 (P17948 whole entry): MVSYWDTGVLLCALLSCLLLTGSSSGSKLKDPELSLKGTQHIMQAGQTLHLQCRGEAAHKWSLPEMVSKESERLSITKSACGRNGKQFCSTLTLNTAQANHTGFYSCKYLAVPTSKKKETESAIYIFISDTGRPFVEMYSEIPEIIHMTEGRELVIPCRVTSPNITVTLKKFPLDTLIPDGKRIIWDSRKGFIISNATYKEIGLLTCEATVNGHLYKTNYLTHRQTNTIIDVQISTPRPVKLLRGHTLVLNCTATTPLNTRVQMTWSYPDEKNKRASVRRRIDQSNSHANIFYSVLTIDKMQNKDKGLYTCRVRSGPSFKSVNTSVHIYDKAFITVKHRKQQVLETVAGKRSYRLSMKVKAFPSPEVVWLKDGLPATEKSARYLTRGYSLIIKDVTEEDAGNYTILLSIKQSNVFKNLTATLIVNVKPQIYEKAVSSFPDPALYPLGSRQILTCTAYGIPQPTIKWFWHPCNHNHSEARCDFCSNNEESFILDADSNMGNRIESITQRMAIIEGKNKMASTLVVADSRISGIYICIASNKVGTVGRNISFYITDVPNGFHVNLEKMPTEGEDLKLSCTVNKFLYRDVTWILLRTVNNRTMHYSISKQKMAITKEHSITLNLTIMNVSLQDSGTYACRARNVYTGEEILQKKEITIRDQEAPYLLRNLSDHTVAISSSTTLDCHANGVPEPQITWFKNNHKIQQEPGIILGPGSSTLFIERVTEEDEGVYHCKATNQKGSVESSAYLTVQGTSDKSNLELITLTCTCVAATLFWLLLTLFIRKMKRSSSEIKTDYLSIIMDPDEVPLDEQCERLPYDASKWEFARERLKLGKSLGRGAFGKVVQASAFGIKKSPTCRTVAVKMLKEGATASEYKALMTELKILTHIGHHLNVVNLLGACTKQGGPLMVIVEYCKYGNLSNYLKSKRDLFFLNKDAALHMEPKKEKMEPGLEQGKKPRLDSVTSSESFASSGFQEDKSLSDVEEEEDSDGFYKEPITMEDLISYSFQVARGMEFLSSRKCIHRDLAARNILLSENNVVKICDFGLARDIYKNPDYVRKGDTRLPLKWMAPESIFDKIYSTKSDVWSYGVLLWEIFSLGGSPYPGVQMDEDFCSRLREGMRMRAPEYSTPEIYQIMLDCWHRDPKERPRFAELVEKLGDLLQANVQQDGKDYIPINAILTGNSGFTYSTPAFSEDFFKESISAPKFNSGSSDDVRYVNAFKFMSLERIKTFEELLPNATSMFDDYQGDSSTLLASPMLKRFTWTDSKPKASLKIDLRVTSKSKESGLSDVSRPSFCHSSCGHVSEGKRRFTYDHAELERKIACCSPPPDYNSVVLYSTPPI

Usually EC50 stands for the concentration needed to bring the measured effect to its halfway point. High values mean weaker potency, low ones greater potency. For orientation: IC50 means the concentration that inhibits the measured activity by half. In the data set with HMEC, `CN1CCN(c2ccc3[nH]c(-c4[nH]nc5ccccc45)nc3c2)CC1` showed an EC50 of 97 nM. Besides, the IC50 stood at 130 nM in data set [1], 44 nM in data set [2], 82 nM in [3] and 170 nM in data set [4].
Taken in the same sequence, the figures for `c1ccc2c(-c3nc4cc(OCCCN5CCCC5)ccc4[nH]3)[nH]nc2c1` were 270 nM, 170 nM, 48 nM, 98 nM and 440 nM.
The matching figures for `CN1CCN(Cc2ccc3[nH]c(-c4[nH]nc5ccccc45)nc3c2)CC1`: 300 nM, 260 nM, 170 nM, 270 nM and 1900 nM.
Molecule `c1ccc(COc2ccc3c(-c4nc5ccc(N6CCC(N7CCCCC7)CC6)cc5[nH]4)n[nH]c3c2)cc1` had an EC50 with HMEC of 220 nM. Moreover, the IC50 in [1] is 21 nM; in data set [2], 11 nM; in data set [3], 23 nM; in data set [4] it was 180 nM.
In the data set with HMEC, `c1ccc2c(-c3nc4ccc(N5CCOCC5)cc4[nH]3)n[nH]c2c1` showed an EC50 of 160 nM. Moreover, the IC50 stood at 160 nM in [1], 50 nM in [2], 100 nM in data set [3] and 260 nM in data set [4].
In the case of `c1ccc(Oc2ccc3n[nH]c(-c4nc5cc(N6CCC(N7CCCCC7)CC6)ccc5[nH]4)c3c2)cc1`, in the data set with HMEC, it took 80 nM to reach a half-maximal effect (EC50). Moreover, the IC50 in data set [1] stood at 44 nM; in data set [2] it was 28 nM; in data set [3], 15 nM; in data set [4], 8 nM.
The matching figures for `c1ccc2c(-c3nc4c(N5CCOCC5)cccc4[nH]3)n[nH]c2c1`: over 10000 nM, over 3000 nM, over 3000 nM, 830 nM and over 3000 nM.
The matching figures for `Fc1cccc2c(-c3nc4ccc(N5CCC(N6CCCCC6)CC5)cc4[nH]3)n[nH]c12`: 1400 nM, 330 nM, 150 nM, 200 nM and 2300 nM.
One may read the bioavailability as the share of a dose that reaches the circulation, judged against a reference dose that is usually intravenous. Lower therefore signals poor availability. Usually AUC stands for the area under the concentration-time curve, a measure of exposure. High values mean high exposure, low ones low exposure. In general, clearance refers to a measure of how efficiently the substance is removed, as volume per time. What is called half-life is the time in which the quantity being followed falls by half. Lower therefore signals fast loss. With `Fc1ccc2c(-c3nc4cc(N5CCC(N6CCCCC6)CC5)ccc4[nH]3)[nH]nc2c1`, the inhibition in vivo at 30 mg/kg with KM12 [5] turned out to be 50%. For the same molecule, in the data set with HMEC, the EC50 stood at 33 nM. The molecule also gave a bioavailability in [6] of 62%. This molecule also returned an AUC in the data set listed under Mus musculus of 2830 ng·h/mL. In data set [7], this molecule yielded a clearance of 71 mL/min/kg. For the same molecule, in data set [8], the Vd came to 24.8 L/kg. Besides, the IC50 in data set [1] is 28 nM; in data set [2], 10 nM; in data set [3], 28 nM; in [4], 310 nM. Besides, in the data set on KM12 [9], the inhibition in vivo at 100 mg/kg came out at 88%. The molecule also registered a half-life in data set [10] of 4.22 h.
As for `CC(C)(C)NC(=O)Nc1cccc2c(-c3nc4cc(N5CCC(N6CCCCC6)CC5)ccc4[nH]3)[nH]nc12`, the IC50 in data set [1], in [2], in data set [3] and in data set [4] was over 3000 nM throughout.
Consider `CN1CCC(N(C)c2ccc3nc(-c4n[nH]c5ccccc45)[nH]c3c2)CC1`, for which, in the data set on HMEC, a half-maximal response (EC50) required 220 nM. The IC50 in [1] was determined as 150 nM; in [2], 8 nM; in [3], 18 nM; in data set [4] it was 500 nM.
The molecule `FC(F)(F)c1ccc2c(-c3nc4ccc(N5CCC(N6CCCCC6)CC5)cc4[nH]3)n[nH]c2c1` returned a concentration for a half-maximal effect (EC50) with HMEC of 4 nM. Also, the IC50 in [1] came to 52 nM; in [4], 62 nM.
Regarding `c1ccc(COc2ccc3[nH]nc(-c4nc5ccc(N6CCC(N7CCCCC7)CC6)cc5[nH]4)c3c2)cc1`, the midpoint of the response with HMEC, the EC50, lay at 190 nM. Also, the IC50 in [1] came to 30 nM; in data set [2] it was 3 nM; in data set [3], 8 nM; in [4], 83 nM.
`c1ccc2c(-c3nc4cc(-n5ccnc5)ccc4[nH]3)n[nH]c2c1` yielded an EC50 in the data set on HMEC of 7000 nM. Moreover, the IC50 was 83 nM in [1], 96 nM in data set [2], 210 nM in [3] and 1400 nM in data set [4].
The molecule `CC(C)(C)NC(=O)Nc1ccc2[nH]nc(-c3nc4ccc(N5CCC(N6CCCCC6)CC5)cc4[nH]3)c2c1` showed an EC50 in the data set with HMEC of 350 nM. In addition, the IC50 in data set [1] came out at 5 nM; in data set [4], 81 nM.
On to `c1ccc2c(-c3nc4ccc(N5CCC(N6CCCCC6)CC5)cc4[nH]3)n[nH]c2c1`, for which, in the data set on HMEC, a half-maximal response (EC50) required 97 nM. Further, the IC50 stood at 78 nM in [1], 28 nM in [2], 48 nM in data set [3] and 690 nM in data set [4].
Take `c1cc2[nH]nc(-c3nc4ccc(N5CCC(N6CCCCC6)CC5)cc4[nH]3)c2cc1NCC1CCCCC1`: the midpoint of the response with HMEC, the EC50, lay at 220 nM. The IC50 in data set [1] was 44 nM; in data set [2], 21 nM; in data set [3], 16 nM; in data set [4] it was 1700 nM.
The matching figures for `CC(C)(C)NC(=O)Nc1cccc2[nH]nc(-c3nc4cc(N5CCC(N6CCCCC6)CC5)ccc4[nH]3)c12`: 240 nM, 70 nM, 4 nM, 3 nM and 440 nM.
The matching figures for `c1ccc(COc2cccc3c(-c4nc5cc(N6CCC(N7CCCCC7)CC6)ccc5[nH]4)[nH]nc23)cc1`: 1800 nM, over 3000 nM, over 3000 nM, over 3000 nM and over 3000 nM.
Taken in the same sequence, the figures for `COC(=O)c1ccc2[nH]nc(-c3nc4ccc(N5CCC(N6CCCCC6)CC5)cc4[nH]3)c2c1` were 130 nM, 31 nM, 15 nM, 73 nM and 63 nM.
`Nc1c(-c2nc3ccccc3[nH]2)c(=O)[nH]c2ccccc12` registered an EC50 with HMEC of 78 nM.
Molecule `c1ccc2[nH]c(-c3n[nH]c4ccccc34)nc2c1` registered an EC50 in the data set with HMEC of 5900 nM. Besides, the IC50 in [1] came out at 3300 nM; in data set [2], 720 nM; in [3] it was 1400 nM; in data set [4] it was 3400 nM.
The matching figures for `c1ccc(COc2cccc3[nH]nc(-c4nc5cc(N6CCC(N7CCCCC7)CC6)ccc5[nH]4)c23)cc1`: 460 nM, 660 nM, 63 nM, 94 nM and 1800 nM.
